Reference: ChEMBL document CHEMBL1126104, “Synthesis and antiviral activity of some new S-adenosyl-L-homocysteine derivatives” (1992)
Converted amounts (≈) assume the structure as drawn.

Tests used:
Coxsackievirus B4 [1] = test: Antiviral activity against coxsackie B4 in Vero cell culture lines; format: functional; conditions: Enterovirus B
[2] = system: Mammalian orthoreovirus 1; test: Antiviral activity against reovirus type 1 in Vero cell culture lines; format: functional
Semliki Forest virus = test: Antiviral activity against semliki forest virus (SFV) in Vero cell culture lines; format: functional
Human alphaherpesvirus 1 = test: Antiviral activity against HSV-1(KOS) strain in primary rabbit kidney (PRK) / embryonic skin-muscle (E6SM) fibroblast culture lines; format: functional; conditions: Human alphaherpesvirus 1, Muscle tissue
Sindbis virus = test: Antiviral activity against sindbis virus in Vero cell culture lines; format: functional
[3] = system: Human immunodeficiency virus 1; test: Antiviral activity against (HIV-1) in MT-4 cells Value in parentheses is inhibitory concentration for cell growth (MT-4); format: functional, MT4
Human respirovirus 3 = test: Antiviral activity against parainfluenza virus type 3 in Vero cell culture lines; format: functional
[4] = system: Vesicular stomatitis virus; test: Antiviral activity against vesicular stomatitis virus (VSV) in primary rabbit kidney (PRK) / embryonic skin-muscle (E6SM) fibroblast culture lines; format: functional; conditions: Muscle tissue
Poliovirus 1 = test: Antiviral activity against polio virus type 1 in HeLa cell culture lines; format: functional; conditions: Enterovirus C
[5] = system: Vesicular stomatitis virus; test: Antiviral activity against vesicular stomatitis virus (VSV) in HeLa cell culture lines,; format: functional
Human alphaherpesvirus 2 = test: Antiviral activity against HSV-2(G) strain in primary rabbit kidney (PRK) / embryonic skin-muscle (E6SM) fibroblast culture lines; format: functional; conditions: Human alphaherpesvirus 2, Muscle tissue
Coxsackievirus B4 [6] = test: Antiviral activity against coxsackie B4 virus in HeLa cell culture lines; format: functional; conditions: Enterovirus B
Vaccinia virus = test: Antiviral activity against vaccinia virus (VV) in primary rabbit kidney (PRK) / embryonic skin-muscle (E6SM) fibroblast culture lines; format: functional; conditions: Orthopoxvirus vaccinia, Muscle tissue

SMILES | MIC (Coxsackievirus B4 [1]) [mg/L] | MIC [2] [mg/L] | MIC (Semliki Forest virus) [mg/L] | MIC (Human alphaherpesvirus 1) [mg/L] | MIC (Sindbis virus) [mg/L] | MIC [3] [mg/L] | MIC (Human respirovirus 3) [mg/L] | MIC [4] [mg/L] | MIC (Poliovirus 1) [mg/L] | MIC [5] [mg/L] | MIC (Human alphaherpesvirus 2) [mg/L] | MIC (Coxsackievirus B4 [6]) [mg/L] | MIC (Vaccinia virus) [mg/L]
COC(=O)C(N)CCSC[C@H]1OC(n2ccc3c(N)ncnc32)[C@H](O)[C@@H]1O (stereo not given in full) | > 100 | > 200 | > 200 | > 100 | > 200 | > 20 | > 200 | 20 (≈ 50.3 µM) | > 200 | 20 (≈ 50.3 µM) | 20 (≈ 50.3 µM) | > 200 | 4 (≈ 10.1 µM)
CCCOC(=O)C(N)CCSC[C@H]1OC(n2ccc3c(N)ncnc32)[C@H](O)[C@@H]1O (stereo not given in full) | 70 (≈ 165 µM) | > 70 | > 150 | 10 (≈ 23.5 µM) | > 70 | > 20 | > 70 | 2 (≈ 4.7 µM) | > 100 | 20 (≈ 47 µM) | 2 (≈ 4.7 µM) | > 100 | 1 (≈ 2.35 µM)
Nc1ncnc2c1ncn2[C@@H]1O[C@H](CCl)C[C@H]1O | > 40 | > 40 | > 40 | > 200 | > 40 | > 100 | > 40 | > 400 | > 200 | > 200 | > 100 | > 200 | > 200
Nc1ncnc2c([C@@H]3O[C@H](CO)C[C@H]3O)n[nH]c12 | > 200 | > 200 | > 400 | > 400 | > 400 | > 100 | 300 (≈ 1190 µM) | > 400 | > 400 | > 400 | > 400 | > 400 | > 400
Nc1ncnc2c([C@H]3CC[C@@H](CCl)O3)n[nH]c12 | > 200 | > 200 | > 400 | > 200 | > 200 | > 100 | > 200 | > 400 | > 400 | > 400 | > 200 | > 400 | > 400
CC(C)(C)C(=O)OCn1nc([C@@H]2O[C@H](CO)[C@@H](O)[C@H]2O)c2ncnc(N)c21 | > 10 | 3 (≈ 7.87 µM) | > 10 | 30 (≈ 78.7 µM) | > 10 | > 0.8 | 1 (≈ 2.62 µM) | 30 (≈ 78.7 µM) | > 40 | 30 (≈ 78.7 µM) | > 40 | > 40 | > 40
COCC(=O)NC(CCSC[C@H]1OC(n2ccc3c(N)ncnc32)[C@H](O)[C@@H]1O)C(=O)O (stereo not given in full) | > 400 | > 400 | > 400 | > 400 | > 400 | > 200 | > 400 | > 20 | > 400 | > 400 | > 400 | > 400 | > 400
Nc1ncnc2c([C@H]3C[C@@H](O)[C@@H](CO)O3)n[nH]c12 | 300 (≈ 1190 µM) | > 400 | > 400 | > 400 | > 400 | > 100 | > 400 | > 400 | > 400 | > 400 | > 400 | > 400 | > 400
Nc1nccc2c1ncn2[C@@H]1O[C@H](CO)C[C@H]1O | > 100 | > 100 | > 100 | > 100 | > 100 | > 20 | > 100 | > 100 | > 40 | > 40 | 70 (≈ 280 µM) | > 40 | > 40
CC(C)OC(=O)C(CCSC[C@H]1OC(n2ccc3c(N)ncnc32)[C@H](O)[C@@H]1O)NC(=O)C(F)(F)F (stereo not given in full) | > 50 | > 50 | > 100 | 20 (≈ 38.3 µM) | > 70 | > 4 | > 50 | 5 (≈ 9.59 µM) | > 100 | 20 (≈ 38.3 µM) | 10 (≈ 19.2 µM) | > 100 | 1 (≈ 1.92 µM)
